# Experimental data reported in patent US20140186329A1, “POLYPHENOL ANALOGS TO TREAT ISCHEMIA” (priority 2011, published 2014).
# Read-outs that look alike come from different tables or passages of the source.
# Tests used:
# HT22 cells = assay: In vitro ischemia assay (HT22 cell IAA assay, MTT); assay type: cell-based, mouse; settings: for Emax / percent protection from IAA-induced cell death at 0.1 µM: HT-22; for Emax: HT22 Cell IAA assay, read-out: Max Protection; for percent protection from IAA-induced cell death at 0.1 µM: compound 100 nM; for increase of survival over the neuroprotective concentration range / neuroprotective concentration range: 20 μM IAA 2 hr, MTT at 24 hours
# Procedure, shortened: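 Mouse HT22 hippocampal cells in DMEM/7.5% DFCS exposed 2 hr to 20 μM iodoacetic acid with or without derivative, then 20 hr in IAA-free medium still containing derivative. Viability by MTT (2.5 μg/ml, 4 hr, 37 °C), absorbance at 570 nm.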
# PC12 cells = assay: PC12 cell differentiation (neurite outgrowth); assay type: cell-based; settings: N2 medium, derivative 1-10 μM, 24 hr, visual inspection
# Procedure, shortened: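 PC12 cells in N2 medium were exposed to derivatives (1-10 μM) for 24 hr, with Fisetin (10 μM) as positive control. Cells counted as positive if bearing ≥1 neurite longer than one cell body diameter; 100 cells scored in each of three fields per treatment.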
# [1] = Mus musculus, HT-22, HT22 cells, 20 μM IAA for 2 hr, viability after 24 hr by MTT, read-out: EC50 in vitro ischemia
# [2] = Mus musculus, HT-22, HT22 cells, 20 μM IAA, read-out: HT22 Cell IAA assay EC50
# [3] = HT22 cells, 20 μM IAA, read-out: HT22 Cell IAA assay EC50
SMILES,EC50 (HT22 cells; [1]) [nM],PC12 diff'n (ability to induce PC12 cell differentiation) (PC12 cells),EC50 (HT22 cells; [2]) [nM],"percent protection from IAA-induced cell death at 0.1 µM (HT22 cells; Mus musculus, 20 μM IAA) [%]",also measured
"Oc1ccc(-c2cc(OC3CCCC3)c3ccccc3n2)cc1O [CMS-121, 4-cyclopentyloxy-2-(3,4-dihydroxyphenyl) quinoline]",7,yes,,,"Emax (HT22 cells; Mus musculus): 86%; fold improvement of neuroprotective activity/potency relative to Fisetin (HT22 cells; in vitro ischemia, HT22/IAA): > 400 fold"
"Cc1cc2oc(-c3ccc(N(C)C)cc3)c(O)c(=O)c2cc1C [CMS-117, 2-(4-(dimethylamino)phenyl)-3-hydroxy-6,7-dimethyl-4H-chromen-4-one]",20,no,,,Emax (HT22 cells; Mus musculus): 81%
"CC(C)Oc1cc(-c2ccc(O)c(O)c2)nc2ccccc12 [CMS-024, 4-isopropoxy-2-(3,4-dihydroxyphenyl) quinoline]",20,yes,21,72,"fold improvement of neuroprotective activity relative to CMS-007 (HT22 cells; in vitro ischemia, HT22/IAA): ~2 fold"
"O=c1cc(-c2ccccc2)oc2cc(O)c(O)c(O)c12 [Baicalein, 5,6,7-trihydroxyflavone, reference compound]",,,1500,,HT22 Cell IAA assay (maximal % protection) (HT22 cells; 20 μM IAA): 85%; increase of survival over the neuroprotective concentration range (HT22 cells; HT22 cells): greater than 80%; neuroprotective concentration range (HT22 cells; HT22 cells): 2.5 to 10 µM
"CN(C)c1ccc(-c2oc3c(ccc4ccccc43)c(=O)c2O)cc1 [CMS-118, 2-(4-(dimethylamino)phenyl)-3-hydroxy-4H-benzo[h]chromen-4-one]",40,no,,,Emax (HT22 cells; Mus musculus): 82%
"O=c1c(O)c(-c2ccc(O)c(O)c2)oc2ccccc12 [CMS-04P, reference compound]",500,yes,500,,"fold improvement of neuroprotective activity/potency relative to Fisetin (HT22 cells; in vitro ischemia, HT22/IAA): ~6 fold"
"COc1cc(-c2oc3cc(C)c(C)cc3c(=O)c2O)ccc1OCc1ccccc1 [CMS-059, 2-(4-(benzyloxy)-3-methoxyphenyl)-3-hydroxy-6,7-dimethyl-4H-chromen-4-one]",170,no,167,49,
"COc1cc(-c2oc3cc(C)c(C)cc3c(=O)c2O)ccc1O [CMS-069, 3-hydroxy-2-(4-hydroxy-3-methoxyphenyl)-6,7-dimethyl-4H-chromen-4-one]",40,no,< 40,67,EC50 (HT22 cells; [3]): 36 nM
"Cc1cc2oc(-c3ccc(N4CCCC4)cc3)c(O)c(=O)c2cc1C [CMS-122, 3-hydroxy-6,7-dimethyl-2-(4-(pyrrolidin-1-yl)phenyl)-4H-chromen-4-one]",90,yes,,,
"O=C(/C=C/c1ccc(O)c(O)c1)c1ccc2ccccc2c1O [CMS-034, (E)-3-(3,4-dihydroxyphenyl)-1-(1-hydroxynaphthalen-2-yl)prop-2-en-1-one]",80,yes,≤ 100,63,EC50 (HT22 cells; [3]): 79 nM; Emax (HT22 cells; Mus musculus): 81%
"Cc1cc(O)c(C(=O)/C=C/c2ccc(O)c(O)c2)cc1C [CMS-011, (E)-3-(3,4-dihydroxyphenyl)-1-(2-hydroxy-4,5-dimethylphenyl)prop-2-en-1-one]",50,yes,50,62,EC50 (HT22 cells; [3]): 53 nM
"O=c1c(O)c(-c2ccc(O)c(O)c2)oc2cc(O)ccc12 [Fisetin, 3,7,3′,4′-Tetrahydroxyflavone, reference compound]",3000,yes,3000,,HT22 Cell IAA assay (maximal % protection) (HT22 cells; 20 μM IAA): 90%; increase of survival over the neuroprotective concentration range (HT22 cells; HT22 cells): greater than 85%; neuroprotective concentration range (HT22 cells; HT22 cells): 5 to 25 µM
"O=c1c(O)c(-c2ccc(O)c(O)c2)oc2c1ccc1ccccc12 [CMS-040, 2-(3,4-dihydroxyphenyl)-3-hydroxy-4H-benzo[h]chromen-4-one]",90,yes,,67,"fold enhancement of neuroprotective activity relative to CMS-04P (HT22 cells; in vitro ischemia, HT22/IAA): ~5.5 fold"
"COc1cc(-c2ccc(O)c(O)c2)nc2ccccc12 [CMS-007, 4-methoxy-2-(3,4-dihydroxyphenyl) quinoline]",40,no,,71,"fold improvement of neuroprotective activity/potency relative to Fisetin (HT22 cells; in vitro ischemia, HT22/IAA): ~75 fold"
"CCOc1cc(-c2ccc(O)c(O)c2)nc2ccccc12 [CMS-023, 4-ethoxy-2-(3,4-dihydroxyphenyl) quinoline]",20,yes,21,72,"fold improvement of neuroprotective activity relative to CMS-007 (HT22 cells; in vitro ischemia, HT22/IAA): ~2 fold; fold improvement of neuroprotective activity/potency relative to Fisetin (HT22 cells; in vitro ischemia, HT22/IAA): ~140 fold"
"O=C(/C=C/c1ccc(O)c(O)c1)O[C@@H]1C[C@](O)(C(=O)O)C[C@@H](O)[C@H]1O [Chlorogenic Acid, 1,3,4,5-tetrahydroxy-cyclohexanecarboxylic acid 3-(3,4-dihydroxycinnamate)]",,,5000,,HT22 Cell IAA assay (maximal % protection) (HT22 cells; 20 μM IAA): 45%
"O=c1c(O)c(-c2ccc(N3CCCC3)c(O)c2)oc2c1ccc1ccccc12 [CMS-140, 3-hydroxy-2-(3-hydroxy-4-(pyrrolidin-1-yl)phenyl)-4H-benzo[h]chromen-4-one]",5,Yes,,,"Emax (HT22 cells; Mus musculus): 89%; fold improvement of neuroprotective activity/potency relative to Fisetin (HT22 cells; in vitro ischemia, HT22/IAA): up to 600 fold"
"COc1ccc(/C=C/C(=O)c2cc(C)c(C)cc2O)cc1OCc1ccccc1 [CMS-086, (E)-3-(3-(benzyloxy)-4-methoxyphenyl)-1-(2-hydroxy-4,5-dimethylphenyl)prop-2-en-1-one]",,yes,,,"EC50 in vitro ischemia (μM) (HT22 cells; HT22 cells, 20 μM IAA for 2 hr, viability after 24 hr by MTT): no"
